Experimental data taken from US11534443B2, “Quinazoline compounds, preparation method, use, and pharmaceutical composition thereof” (INSTITUTE OF MATERIA MEDICA, CHINESE ACADEMY OF MEDICAL …, priority 2016, dated 2022).
pIC50: −log10 of the molar value.

Assays:
PI3Kα = PI3Kα (Homo sapiens (Human), UniProt P42336); assay: Biochemical evaluation of activity of PI3Kα (Kinase-Glo luminescence kinase assay); settings: 25 μM ATP, 50 μM PIP2, 1 h at room temperature
Procedure: The potency of compounds in the present intention against PI3Kα was assessed by in vitro kinase assay. The kinase activity of PI3Kα was determined by detecting the level of ADP produced in the kinase reaction with luciferase-based luminescence detection.
The Kinase-Glo™ Kinase Assay Kit was purchased from Promega. All assays were performed at room temperature using white OptiPlate™-384 well plate. The PI3Kα kinase was purchased from Invitrogen. The substrate was PIP2 from Invitrogen. The kinase buffer contained 50 mM Hepes (pH 7.5), 3 mM MgCl2, 100 mM NaCl, 1 mM EGTA, 0.03% CHAPS and 2 mM DTT. […] The substrate solution contained 100 μM PIP2 and 50 μM ATP. The test compound was diluted to 10 mM in 100% DMSO and serially diluted three times into ten different concentrations in 100% DMSO. The compound diluted in 100% DMSO was diluted 25-fold in 1×kinase buffer. 2.5 μL of the diluted compound solution and 2.5 μL PI3Kα kinase solution were added to each well of a 384-well plate. The reaction was initiated by addition of 5 μL substrate solution to each well. […] The plate was then covered and the reaction was allowed to proceed for one hour at room temperature, followed by the addition of 10 μL Kinase-Glo™ reagent to each well to stop the reaction.
The percentage of inhibition was calculated as follows: Inhibition %=100−(max−sample RLU)/(max−min)*100
wherein sample RLU was the luminescence reading for a given compound concentration, min was the reading of DMSO control, and max was the reading of the enzyme-free control. The IC50 value was calculated with the XLfit program in Excel.

[1] = system: human lung cancer cell NCI-H460; assay: Tumor cell viability by MTT assay; type: cell-based; settings: Homo sapiens, NCI-H460, 96 h
Procedure: After 24 hours, 100 μL of fresh medium containing different concentrations of test compounds and the corresponding solvent control was added into each well to a final concentration of DMSO less than 0.2%. Six to nine concentration groups were set for each test compound, and three parallel wells were set for each group. The plate was incubated at 5% CO2, 37° C. for 96 hours. 20 μL of freshly prepared PBS solution containing 5 mg/mL MTT was added to each well. The supernatant was discarded after incubation for another 4 hours. 150 μL DMSO was added to each well to dissolve the MTT formazan precipitate. After being mixed by a micro-oscillator, the optical density (OD) was measured at the wavelength of 570 nm, and the tumor cells treated with DMSO were used as a control group.

Chain of PI3Kα (P42336 whole entry): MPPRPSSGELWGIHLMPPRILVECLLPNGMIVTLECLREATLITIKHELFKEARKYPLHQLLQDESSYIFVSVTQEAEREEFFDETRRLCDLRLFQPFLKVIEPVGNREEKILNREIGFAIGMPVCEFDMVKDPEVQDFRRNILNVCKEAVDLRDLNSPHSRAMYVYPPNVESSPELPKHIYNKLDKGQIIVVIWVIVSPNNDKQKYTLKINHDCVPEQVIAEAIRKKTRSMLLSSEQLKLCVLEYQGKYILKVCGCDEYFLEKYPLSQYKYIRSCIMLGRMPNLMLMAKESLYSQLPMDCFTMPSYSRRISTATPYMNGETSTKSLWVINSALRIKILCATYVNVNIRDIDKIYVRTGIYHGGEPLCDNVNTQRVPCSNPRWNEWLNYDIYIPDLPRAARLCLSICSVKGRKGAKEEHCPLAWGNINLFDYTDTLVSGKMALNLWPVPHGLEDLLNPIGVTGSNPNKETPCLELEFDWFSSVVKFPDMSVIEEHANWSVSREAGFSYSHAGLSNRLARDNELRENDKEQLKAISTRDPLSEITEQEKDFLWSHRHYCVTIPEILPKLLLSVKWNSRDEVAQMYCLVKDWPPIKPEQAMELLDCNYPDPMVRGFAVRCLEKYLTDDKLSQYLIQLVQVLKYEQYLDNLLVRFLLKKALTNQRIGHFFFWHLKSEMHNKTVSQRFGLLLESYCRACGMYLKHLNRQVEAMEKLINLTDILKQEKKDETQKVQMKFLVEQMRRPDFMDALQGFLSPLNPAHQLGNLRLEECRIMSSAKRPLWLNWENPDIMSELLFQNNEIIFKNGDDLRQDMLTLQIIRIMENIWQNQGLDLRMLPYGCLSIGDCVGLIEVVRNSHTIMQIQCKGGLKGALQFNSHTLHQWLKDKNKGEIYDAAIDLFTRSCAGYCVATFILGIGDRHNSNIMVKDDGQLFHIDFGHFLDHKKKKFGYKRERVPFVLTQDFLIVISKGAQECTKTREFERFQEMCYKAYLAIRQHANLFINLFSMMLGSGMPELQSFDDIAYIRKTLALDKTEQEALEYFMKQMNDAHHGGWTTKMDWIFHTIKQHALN
Chain of PI3Kα (P27986 whole entry partner): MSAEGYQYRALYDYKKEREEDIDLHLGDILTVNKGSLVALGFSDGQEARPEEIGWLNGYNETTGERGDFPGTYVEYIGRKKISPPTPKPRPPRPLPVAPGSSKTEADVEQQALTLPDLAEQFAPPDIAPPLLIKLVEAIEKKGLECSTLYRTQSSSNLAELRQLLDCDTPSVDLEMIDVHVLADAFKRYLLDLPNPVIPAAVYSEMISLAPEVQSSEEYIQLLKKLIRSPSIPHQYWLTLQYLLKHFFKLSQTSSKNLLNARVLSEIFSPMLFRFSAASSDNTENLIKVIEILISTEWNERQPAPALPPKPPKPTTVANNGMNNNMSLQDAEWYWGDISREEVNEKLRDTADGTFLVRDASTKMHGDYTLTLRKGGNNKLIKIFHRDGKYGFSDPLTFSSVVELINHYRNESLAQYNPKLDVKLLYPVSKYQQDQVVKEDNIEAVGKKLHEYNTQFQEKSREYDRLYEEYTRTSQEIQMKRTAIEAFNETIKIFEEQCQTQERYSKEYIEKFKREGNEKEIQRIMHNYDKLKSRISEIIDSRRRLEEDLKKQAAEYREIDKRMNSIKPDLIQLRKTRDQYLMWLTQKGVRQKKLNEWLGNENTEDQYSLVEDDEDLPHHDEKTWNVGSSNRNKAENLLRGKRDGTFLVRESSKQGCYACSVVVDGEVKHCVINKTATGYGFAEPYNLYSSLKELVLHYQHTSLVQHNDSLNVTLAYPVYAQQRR

Compound	pIC50 (PI3Kα)	pIC50 [1]
COc1ncc(-c2cc(OC3CCC3)c3ncnc(C)c3c2)cc1NS(=O)(=O)c1ccc(F)cc1F [Example 70, N-(5-(8-cyclobutoxy-4-methylquinazolin-6-yl)-2-methoxypyridin-3-yl)-2,4-difluorobenzenesulfonamide]	9.05	7.66
CNc1nc(C)c2cc(-c3cnc(OC)c(NS(=O)(=O)c4ccc(F)cc4F)c3)cc(O[C@H]3CCOC3)c2n1 [Example 35, (S)—N-(2-methoxy-5-(4-methyl-2-(methylamino)-8-((tetrahydrofuran-3-yl)oxy)quinazolin-6-yl)pyridin-3-yl)-2,4-difluorobenzenesulfonamide]	8.74	
COc1ncc(-c2cc(OC3CCOCC3)c3nc(N)nc(C)c3c2)cc1NS(=O)(=O)c1ccc(Cl)s1 [Example 4, N-(5-(2-amino-4-methyl-8-((tetrahydro-2H-pyran-4-yl)oxy)quinazolin-6-yl)-2-methoxypyridin-3-yl)-5-chlorothiophene-2-sulfonamide]	9.13	
COc1ncc(-c2cc(OCC3CCOC3)c3nc(N)nc(C)c3c2)cc1NS(=O)(=O)c1ccc(F)cc1F (stereo not shown) [Example 21, N-(5-(2-amino-4-methyl-8-((tetrahydrofuran-3-yl)methoxy)quinazolin-6-yl)-2-methoxypyridin-3-yl)-2,4-difluorobenzenesulfonamide]	9.00	
CNc1nc(C)c2cc(-c3cnc(OC)c(NS(=O)(=O)c4ccc(F)cc4F)c3)cc(OC3CCC3)c2n1 [Example 41, N-(5-(8-cyclobutoxy-4-methyl-2-(methylamino)quinazolin-6-yl)-2-methoxypyridin-3-yl)-2,4-difluorobenzenesulfonamide]	8.30	
COc1ncc(-c2cc(OC3CCCC3)c3nc(N)nc(C)c3c2)cc1NS(=O)(=O)c1ccc(F)cc1F [Example 23, N-(5-(2-amino-8-(cyclopentyloxy)-4-methylquinazolin-6-yl)-2-methoxypyridin-3-yl)-2,4-difluorobenzenesulfonamide]	8.96	
COc1ncc(-c2cc(OC3CCOC(C)(C)C3)c3nc(N)nc(C)c3c2)cc1NS(=O)(=O)c1ccc(F)cc1F (stereo not shown) [Example 19, N-(5-(2-amino-8-((2,2-dimethyltetrahydro-2H-pyran-4-yl)oxy)-4-methylquinazolin-6-yl)-2-methoxypyridin-3-yl)-2,4-difluorobenzenesulfonamide]	9.00	
COc1ncc(-c2cc(OCC3CCCO3)c3nc(N)nc(C)c3c2)cc1NS(=O)(=O)c1ccc(F)cc1F (stereo not shown) [Example 20, N-(5-(2-amino-4-methyl-8-((tetrahydrofuran-2-yl)methoxy)quinazolin-6-yl)-2-methoxypyridin-3-yl)-2,4-difluorobenzenesulfonamide]	8.89	
CNc1nc(C)c2cc(-c3cnc(OC)c(NS(=O)(=O)c4ccc(F)cc4F)c3)cc(OC3CCCC3)c2n1 [Example 40, N-(5-(8-(cyclopentyloxy)-4-methyl-2-(methylamino)quinazolin-6-yl)-2-methoxypyridin-3-yl)-2,4-difluorobenzenesulfonamide]	8.07	
COc1ncc(-c2cc(OCCN3CCOCC3)c3ncnc(C)c3c2)cc1NS(=O)(=O)c1ccc(F)cc1F [Example 65, N-(2-methoxy-5-(4-methyl-8-(2-morpholinoethoxy)quinazolin-6-yl)pyridin-3-yl)-2,4-difluorobenzenesulfonamide]		6.20
COc1ncc(-c2cc(OC3CCOCC3)c3nc(N)nc(C)c3c2)cc1NS(=O)(=O)c1ccc(F)cc1 [Example 3, N-(5-(2-amino-4-methyl-8-((tetrahydro-2H-pyran-4-yl)oxy)quinazolin-6-yl)-2-methoxypyridin-3-yl)-4-fluorobenzenesulfonamide]		7.02
COc1ncc(-c2cc(OC3CCC3)c3nc(N)nc(C)c3c2)cc1NS(=O)(=O)c1ccc(F)cc1F [Example 24, N-(5-(2-amino-8-cyclobutoxy-4-methylquinazolin-6-yl)-2-methoxypyridin-3-yl)-2,4-difluorobenzenesulfonamide]	9.10	
